Measured values from patent US12629355B2, “Drug inhibitor against migration and invasion of cancer cells and methods of treating against metastasis of cancer cells” (HOWARD UNIVERSITY, priority 2019, dated 2026).

How the values were obtained:
Type in all cases: cell-based
N-cadherin = test: Protein expression of EMT marker N-cadherin, western blot (FIG. 8); conditions: U251 cells, serum starved 24 h, with or without TGFb, 6 days
From the text: The inhibition of EMT marker by a representative compound (SD 29-14) in comparison to other compounds (SD 29, and SD 29-12). A large family of cadherin molecules are expressed in a cancer cell-type specific manner and among them, N-cadherin is reported to be expressed in mesenchymal cells (e.g., Li and Feng, 2011; Alizadeh et al., 2014). […] Up-regulation of N-cadherin reduces cancer cell adhesion ability to epithelial cells, increases adhesion to stromal cells, and leads to subsequent invasion of tumor cells into stroma (Guan 2015). N-cadherin promotes cell migration and metastasis regardless of the expression and function of E-cadherin (Hazan et al., 2000). […] The N-cadherin expression correlates with RACK1 expression (lower panel). The coomassie stained gel is used as the loading control.
As to FIG. 8, U251 cells starved (no serum) for 24 h and then treated with the indicated compounds with or without the TGFb and again replenished with the compounds and TGFb after 3 days. After allowing to grow for 6 days, the cells were washed three times in PBS. […] After overnight incubation, the membrane was washed 3× in PBST and then incubated with a horseradish peroxidase-coupled secondary antibody for an hour at room temperature and the bands were detected with enhanced chemiluminescence (Pierce, Rockford, IL, USA), according to standard methods.

U251 cells = test: Migration through Matrigel, cell shape differentiation (FIG. 16-19)
Protocol: Within 24 h of the placement of the cells on the matrigel, the cells were able to migrate through the matrigel and were captured on the glass coverslip beneath the matrigel layer.
The cells are labeled with an antibody (pY397-FAK) and detected with a rabbit-TRITC secondary antibody. The antibody staining allowed to visualize the cells clearly but the autofluorescence of the Matrigel made it hard to pinpoint the precise localization of the pY397-FAK protein.
As to FIG. 19, and related methods, freshly harvested 10^5 cells in MEM no serum media+/−drugs (500 μl) placed on coverslip covered with 200 μl of 1:12 matrigel diluted with MEM serum free media in a 24 well plate. After 24 h, the matrigel was carefully removed by tilting wells and drawing from the tilted side of the wells and washing thoroughly with PBS to remove the matrigel completely (all crumbs removed as their auto fluorescence makes background during imaging) and then were fixed 10 minutes with 4% paraformaldehyde. Washed 2× with PBS; use 5% Urea to treat the cells at 95 C for 10 minutes, wash 2×PBS; permeabilize with 0.5% saponin in PBS; block cells with 3% BSA in PBST for 30 min; Overnight Primary antibody (ThermoFisher Cat #70025-pFAK397 rabbit at 1:250) in 1% BSA in PBST at 4 C, secondary (Rabbit-TRITC) also 1% BSA in PBST for one hour (1:1000).

[1] = target: T1, RACK1A Y248 phosphorylation (Arabidopsis thaliana, UniProt O24456); test: Stress hormone (ABA) induced RACK1A Y248 phosphorylation in Arabidopsis seedlings, western blot (FIG. 1); conditions: 10 uM ABA, 12 hours
T1 construct: from tissue; host or cells: one-week old Arabidopsis seedlings (whole-seedling lysate)
T1 sequence (O24456 whole entry): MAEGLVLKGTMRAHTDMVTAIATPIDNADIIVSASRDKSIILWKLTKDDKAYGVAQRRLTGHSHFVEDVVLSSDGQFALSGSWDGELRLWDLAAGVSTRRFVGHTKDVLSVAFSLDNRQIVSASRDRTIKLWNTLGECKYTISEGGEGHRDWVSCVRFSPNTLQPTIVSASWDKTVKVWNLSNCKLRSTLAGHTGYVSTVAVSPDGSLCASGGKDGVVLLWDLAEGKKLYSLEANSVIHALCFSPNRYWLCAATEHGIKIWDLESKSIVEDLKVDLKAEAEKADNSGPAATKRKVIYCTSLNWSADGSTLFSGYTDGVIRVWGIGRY
From the text: The results of lab experiment establish the compounds identified by in silico screen to prevent RACK1 Y248 phosphorylation can inhibit RACK1 Y248 phosphorylation and confirm their utility in their application in RACK1 mediated cellular pathways. Y248 phosphorylation has previously been identified as a key event needed for RACK1 mediated scaffolding activities by regulating protein-protein interactions in plants. The corresponding residue in human RAKI is also a key requirement for scaffolding activities needed at the receptor level during the invasion and migration of cancer cells. […] The knock-out plant did maintain both the RACK1B protein and the RACK1C protein, but the antibody was raised to detect the RACK1A Y248 phosphorylation only.
As to FIG. 1, since RACK1 is a regulator of plant stress hormone Abscisic acid (ABA) (Guo et al., 2009), one-week old Arabidopsis seedlings were treated with 10 uM of ABA in the presence/absence of the inhibitor compounds for 12 hours in a growth chamber (overnight) at 22 C mostly in the night dark. Lysates isolated in buffer (Cell Signaling, MA) supplemented with plant protease inhibitor (Sigma-Aldrich), Protein Tyrosine phosphatase inhibitors (Santa Cruz Biotechnology, TX), and N-Ethylamaleimide (Sigma-Aldrich) at 25 mM to inhibit de-sumoylation. […]

pY397-FAK = pY397-FAK expression, immunofluorescence (FIG. 14); conditions: MCF7 cells, 96 h, 5 ng/ml TGF-beta
From the text: As to FIGS. 14 and 15, in order to evaluate the effect of a representative compound (SD 29-14) as a drug for inducing functional inactivation of RACK1 on the FAK phosphorylation, the drug was used in testing with breast cancer cells (MCF7, FIG. 14) and with glioblastoma cancer cells (U251, FIG. 15). In this immunofluorescence experiment, the pY397-FAK expressing cells were stained with FITC tagged secondary antibody (green) and RACK1 was stained with TRITC tagged secondary antibody (red). Here 5 ng/ml TGFbeta was used to induce cell migration. […] As discussed above, without the pY397-FAK present, the connection between the ECM and cell interiors will be disrupted which will inhibit the cell's potential to migrate by initiating the cell's adhesion to the ECM.
As to FIGS. 14 and 15, and the methods, the immunofluorescence experiments are essentially same as described with reference to FIG. 9 with a slight modification in the duration of the drug treatment. The cancer cells (MCF7 or U251) were incubated with a drug (SD 29-14) or with DMSO (left panel) for 96 h in the presence of 5 ng/ml TGF-beta. After indicated incubation period, the cells were fixed and stained with antibody as described for FIG. 9 methods.

RACK1A Y248 phosphorylation with stress hormone present [1]: prevents Y248 phosphorylation
Compound: Nn1c(S)nnc1-c1cc(Cl)cc(Cl)c1 [SD 29-14]
N-cadherin expression (N-cadherin): down-regulated N-cadherin expression
filipodia, invadopodia, lamellipodia structures and cell-cell adhesion during invasion through matrigel (U251 cells; 10 μM, 24 h (FIG. 17)): those structures where inhibited and the cells mostly maintained their cell-cell adhesion
filipodia, invadopodia, lamellipodia structures and cell-cell adhesion during invasion through matrigel (U251 cells; 100 μM, 24 h (FIG. 18)): those structures where inhibited and the cells mostly maintained their cell-cell adhesion
expression of pY397-FAK at the cell protrusions (pY397-FAK): almost completely inhibited
